# Measurements as given in patent US9511073B2, “Aromatic amides and uses thereof” (TAXIS Pharmaceuticals, Inc., priority 2011, dated 2016).
# Tested on: Staphylococcus aureus (Isolate ID ATCC 29213)
# Assay: Bacterial assay: MIC by broth microdilution or agar dilution (CLSI), S. aureus ATCC 29213
# Assay type: cell-based
# Settings: Staphylococcus aureus, ATCC29213, read-out: S. aureus MIC (μg/mL) Activity Range, S. aureus (ATCC29213)
# In short: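 MICs by CLSI broth microdilution or agar dilution against S. aureus ATCC 29213 and its FtsZ-G196A mutant. Values reported as ranges: A ≤0.25 μg/mL, B >0.25–1.0, C >1.0–16, D >16 μg/mL.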
row,Structure (SMILES),MIC
1,"NC(=O)c1c(F)ccc(OC(COC(=O)NCCn2ccccc2=O)c2nc(-c3ccc(C(F)(F)F)cc3)c(Br)o2)c1F (stereo not drawn) [Compound 217, 2-(5-bromo-4-(4-(trifluoromethyl)phenyl)oxazol-2-yl)-2-(3-carbamoyl-2,4-difluorophenoxy)ethyl (2-(2-oxopyridin-1(2H)-yl)ethyl)carbamate]",0.25 to 1 µg/mL
2,"NC(=O)c1c(F)ccc(OC(COC(=O)N2CCOCC2)c2nc(-c3ccc(C(F)(F)F)cc3)c(Br)o2)c1F (stereo not drawn) [Compound 160, 2-(5-bromo-4-(4-(trifluoromethyl)phenyl)oxazol-2-yl)-2-(3-carbamoyl-2,4-difluorophenoxy)ethyl morpholine-4-carboxylate]",< 0.25 µg/mL
3,"Cc1nc(C)c(-c2nc(C(CO)Oc3ccc(F)c(C(N)=O)c3F)oc2Br)s1 (stereo not drawn) [Compound 245, 3-(1-(5-bromo-4-(2,4-dimethylthiazol-5-yl)oxazol-2-yl)-2-hydroxyethoxy)-2,6-difluorobenzamide]",> 16 µg/mL
4,"NC(=O)c1c(F)ccc(OC(COCCN2CCOCC2)c2nc(-c3ccc(C(F)(F)F)cc3)c(Br)o2)c1F (stereo not drawn) [Compound 168, 3-(1-(5-bromo-4-(4-(trifluoromethyl)phenyl)oxazol-2-yl)-2-(2-morpholinoethoxy)ethoxy)-2,6-difluorobenzamide]",1 to 16 µg/mL
5,"Cc1nn(C)cc1CNC(=O)OCC(Oc1ccc(F)c(C(N)=O)c1F)c1nc(-c2ccc(C(F)(F)F)cc2)c(Br)o1 (stereo not drawn) [Compound 204, 2-(5-bromo-4-(4-(trifluoromethyl)phenyl)oxazol-2-yl)-2-(3-carbamoyl-2,4-difluorophenoxy)ethyl ((1,3-dimethyl-1H-pyrazol-4-yl)methyl)carbamate]",0.25 to 1 µg/mL
6,"NC(=O)c1c(F)ccc(OC(c2cccnc2)c2nc(-c3ccc(Cl)cc3)c(Br)o2)c1F (stereo not drawn) [Compound 99, 3-((5-bromo-4-(4-chlorophenyl)oxazol-2-yl)(pyridin-3-yl)methoxy)-2,6-difluorobenzamide]",1 to 16 µg/mL
7,"C[C@H](O)[C@@H](Oc1ccc(F)c(C(N)=O)c1F)c1nc(-c2ccc(OC(F)F)cc2)c(Br)o1 [Compound 300, 3-((1R,2S)-1-(5-bromo-4-(4-(difluoromethoxy)phenyl)oxazol-2-yl)-2-hydroxypropoxy)-2,6-difluorobenzamide]",< 0.25 µg/mL
8,C=CCc1oc(C(C)Oc2ccc(F)c(C(N)=O)c2F)nc1-c1ccc(OC)cc1 (stereo not drawn) [Compound 9],0.25 to 1 µg/mL
9,"COCC(Oc1ccc(F)c(C(N)=O)c1F)c1nc(-c2ccc(C(F)(F)F)cc2)c(Br)o1 (stereo not drawn) [Compound 103, 3-(1-(5-bromo-4-(4-(trifluoromethyl)phenyl)oxazol-2-yl)-2-methoxyethoxy)-2,6-difluorobenzamide]",0.25 to 1 µg/mL
10,CCCc1oc(C(C)Oc2ccc(F)c(C(N)=O)c2F)nc1-c1ccc(OC)cc1 (stereo not drawn) [Compound 15],0.25 to 1 µg/mL
11,"CNC(=O)OCC(Oc1ccc(F)c(C(N)=O)c1F)c1nc(-c2ccc(C(F)(F)F)cc2)c(Br)o1 (stereo not drawn) [Compound 113, 2-(5-bromo-4-(4-(trifluoromethyl)phenyl)oxazol-2-yl)-2-(3-carbamoyl-2,4-difluorophenoxy)ethyl methylcarbamate]",0.25 to 1 µg/mL
12,CC(Oc1ccc(F)c(C(N)=O)c1F)c1nc(-c2ccc(C(F)(F)F)nc2)c(Cl)o1 (stereo not drawn) [Compound 50],1 to 16 µg/mL
13,"CCCc1oc(C(C)Oc2ccc(F)c(C(N)=O)c2F)nc1-c1ccc(OC(F)(F)F)cc1 (stereo not drawn) [Compound 20, 2,6-difluoro-3-(1-(5-propyl-4-(4-(trifluoromethoxy)phenyl)oxazol-2-yl)ethoxy)benzamide]",< 0.25 µg/mL
14,"NC(=O)c1c(F)ccc(OC(CO)c2coc(-c3ccc(C(F)(F)F)cc3)n2)c1F (stereo not drawn) [Compound 136, 2,6-difluoro-3-(2-hydroxy-1-(2-(4-(trifluoromethyl)phenyl)oxazol-4-yl)ethoxy)benzamide]",1 to 16 µg/mL
15,"NC(=O)c1c(F)ccc(OC(COC(=O)CCC(=O)O)c2nc(-c3ccc(C(F)(F)F)cc3)c(Br)o2)c1F (stereo not drawn) [Compound 74, 4-(2-(5-bromo-4-(4-(trifluoromethyl)phenyl)oxazol-2-yl)-2-(3-carbamoyl-2,4-difluorophenoxy)ethoxy)-4-oxobutanoic acid]",1 to 16 µg/mL
16,"CCCc1oc(C(CC)Oc2ccc(F)c(C(N)=O)c2F)nc1-c1ccc(Cl)cc1 (stereo not drawn) [Compound 26, 3-(1-(4-(4-chlorophenyl)-5-propyloxazol-2-yl)propoxy)-2,6-difluorobenzamide]",0.25 to 1 µg/mL
17,"NC(=O)c1c(F)ccc(OC(CNC(=O)c2ccccn2)c2nc(-c3ccc(C(F)(F)F)cc3)co2)c1F (stereo not drawn) [Compound 294, N-(2-(3-carbamoyl-2,4-difluorophenoxy)-2-(4-(4-(trifluoromethyl)phenyl)oxazol-2-yl)ethyl)picolinamide]",> 16 µg/mL
18,"Cc1ncccc1CNC(=O)OCC(Oc1ccc(F)c(C(N)=O)c1F)c1nc(-c2ccc(C(F)(F)F)cc2)c(Br)o1 (stereo not drawn) [Compound 215, 2-(5-bromo-4-(4-(trifluoromethyl)phenyl)oxazol-2-yl)-2-(3-carbamoyl-2,4-difluorophenoxy)ethyl ((2-methylpyridin-3-yl)methyl)carbamate]",0.25 to 1 µg/mL
19,CCCc1oc(C(CCC)Oc2ccc(F)c(C(N)=O)c2F)nc1-c1ccc(Cl)cc1 (stereo not drawn) [Compound 30],1 to 16 µg/mL
20,"COc1ccc(-c2coc(C(CO)Oc3ccc(F)c(C(N)=O)c3F)n2)c(F)c1 (stereo not drawn) [Compound 228, 2,6-difluoro-3-(1-(4-(2-fluoro-4-methoxyphenyl)oxazol-2-yl)-2-hydroxyethoxy)benzamide]",> 16 µg/mL
21,"NC(=O)c1c(F)ccc(OC(CNC(=O)c2cccnc2)c2nc(-c3ccc(C(F)(F)F)cc3)c(Br)o2)c1F (stereo not drawn) [Compound 295, N-(2-(5-bromo-4-(4-(trifluoromethyl)phenyl)oxazol-2-yl)-2-(3-carbamoyl-2,4-difluorophenoxy)ethyl)nicotinamide]",0.25 to 1 µg/mL
22,"COc1ccc(-c2csc(C(CO)Oc3ccc(F)c(C(N)=O)c3F)n2)nc1 (stereo not drawn) [Compound 260, 2,6-difluoro-3-(2-hydroxy-1-(4-(5-methoxypyridin-2-yl)thiazol-2-yl)ethoxy)benzamide]",1 to 16 µg/mL
23,"NC(=O)c1c(F)ccc(OC(CO)c2nc(C3CCOCC3)c(Br)o2)c1F (stereo not drawn) [Compound 187, 3-(1-(5-bromo-4-(tetrahydro-2H-pyran-4-yl)oxazol-2-yl)-2-hydroxyethoxy)-2,6-difluorobenzamide]",> 16 µg/mL
24,"CN(C)C(=O)CCC(Oc1ccc(F)c(C(N)=O)c1F)c1nc(-c2ccc(C(F)(F)F)cc2)c(Br)o1 (stereo not drawn) [Compound 94, 3-(1-(5-bromo-4-(4-(trifluoromethyl)phenyl)oxazol-2-yl)-4-(dimethylamino)-4-oxobutoxy)-2,6-difluorobenzamide]",< 0.25 µg/mL
25,CCCc1oc(C(C)Oc2ccc(F)c(C(N)=O)c2F)nc1-c1ccccc1 (stereo not drawn) [Compound 8],1 to 16 µg/mL
26,"NC(=O)c1c(F)ccc(OC(C(=O)O)c2nc(-c3ccc(Cl)cc3)co2)c1F (stereo not drawn) [Compound 12, 2-(3-carbamoyl-2,4-difluorophenoxy)-2-(4-(4-chlorophenyl)oxazol-2-yl)acetic acid]",> 16 µg/mL
27,"CC(=O)OCC(Oc1ccc(F)c(C(N)=O)c1F)c1nc(-c2ccc(C(F)(F)F)cc2)sc1Br (stereo not drawn) [Compound 130, 2-(5-bromo-2-(4-(trifluoromethyl)phenyl)thiazol-4-yl)-2-(3-carbamoyl-2,4-difluorophenoxy)ethyl acetate]",> 16 µg/mL
